Data reported in US8329735B2, “Tetrazole compounds which selectively modulate the CB2 receptor” (Boehringer Ingelheim International GmbH, priority 2010, dated 2012).
pEC50: −log10 of the molar value. In brackets after ≈: the same amount, converted by molar mass. Like-named read-outs stand apart in the source and are kept apart here.

Tests used:
[1] = tested on: Salmonella bacterial strains TA98 and TA100; assay: Ames mutagenicity assay: bacteria reverse mutation screening assay; assay type: cell-based; settings: TA98 and TA100, presence or absence of S9
Description: The Ames ^(1) Salmonella bacterial strains used in the abbreviated screening assay ^(2) are TA98 and TA100. Actively growing (log phase) bacteria are incubated with test compound and trace amounts of histidine in the presence or absence of S9 for 48 hours on minimal agar plates. Test compound is dissolved in DMSO to a final concentration of 100 mg/ml. The stock is serially diluted to yield concentrations of 100, 50, 25 12.5 and 6.3 mg/ml. Fifty microliters of dosing solution is combined with top agar and buffer (or S9 mix) and poured on duplicate plates to yield effective doses of 5000, 2500, 1250, 625 and 313 μg/plate. Positive and negative controls plates are included. Formation of colonies after 48 hr incubation at 37° C. is an indication of genetic reversion, either arising spontaneously or caused by the test compound. The average number of spontaneous colonies growing on control plates is compared to the number of colonies on test plates. A fold increase of 2-3× over background is generally considered a positive response for mutagenicity. • 1. Maron, D. M. and Ames, B. N. (1983). “Revised Methods for the Salmonella Mutagenicity Test”. Mutat. Res. 113, 173-215. • 2. D. A. Burke, D. J. Wedd, and B. Burlinson (1996). “Use of the Miniscreen assay to screen novel compounds for bacterial mutagenicity in the pharmaceutical industry”. Mutagenesis 11: 201-205.

human CB2R = biological target: T1, human CB2R (Homo sapiens, UniProt P34972); assay: CB2R mediated modulation of cAMP synthesis; assay type: cell-based
T1 construct: host or cells: CHO cells
T1 sequence (P34972 whole entry): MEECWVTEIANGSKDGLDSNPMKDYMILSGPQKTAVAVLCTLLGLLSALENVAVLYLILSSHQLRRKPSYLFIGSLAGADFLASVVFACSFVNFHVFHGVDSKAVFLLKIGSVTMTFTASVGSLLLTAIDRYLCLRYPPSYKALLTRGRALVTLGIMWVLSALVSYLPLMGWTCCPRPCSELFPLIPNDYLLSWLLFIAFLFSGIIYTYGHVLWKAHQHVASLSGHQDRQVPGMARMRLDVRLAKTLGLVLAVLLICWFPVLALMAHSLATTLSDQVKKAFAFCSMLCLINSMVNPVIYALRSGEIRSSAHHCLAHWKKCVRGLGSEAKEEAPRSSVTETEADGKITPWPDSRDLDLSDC
Description: Compounds of the invention are evaluated for their CB2 agonist or inverse agonistic activity in accordance with the following experimental method.
(§1) CHO cells expressing human CB2R (Euroscreen) are plated at a density of 5000 cells per well in 384 well plates and incubated overnight at 37° C. After removing the media, the cells are treated with test compounds diluted in stimulation buffer containing 1 mM IBMX, 0.25% BSA and 10 uM Forskolin. The assay is incubated for 30 minutes at 37° C. Cells are lysed and the cAMP concentration is measured using DiscoverX—XS cAMP kit, following the manufacturer's protocol. In this setting, agonists will decrease forskolin induced production of cAMP while inverse agonists will further increase forskolin induced production of cAMP. EC50 of agonists are calculated as follows. The maximal amount of cAMP produced by forskolin compared to the level of cAMP inhibited by 1 uM CP55940 is defined as 100%. The EC50 value of each test compound is determined as the concentration at which 50% of the forskolin-stimulated cAMP synthesis is inhibited. Data is analyzed using a four-parameter logistic model. (Model 205 of XLfit 4.0).

[2] = Human microsomal stability assay; assay type: in vitro ADME; settings: human liver microsomes 1 mg protein/ml, 1 uM compound, pH 7.4
Description: The double time point high throughput screen for human liver microsomal metabolic stability is used to measure the in vitro metabolism of test compounds by human liver microsomal enzymes. The data collected are analyzed to calculate a half-life (t½, min) and clearance (expressed as percent hepatic blood flow, % QH) for test compounds. The assay is performed in 50 mM potassium phosphate buffer, pH 7.4 and 2.5 mM NADPH. Test samples are dissolved in DMSO and acetonitrile for a final assay concentration of 1 uM. Human liver microsomes are diluted in assay buffer to a final assay concentration of 1 mg protein/ml. Compound solution and microsome suspension are added to assay buffer for a final incubation volume of 350 ul. The preparation is incubated for 5 min in a 37° C. water bath. The reaction is started by the addition of NADPH. Volumes of 80 ul are removed from the incubation mix at 0, 5, and 30 min after the start of the reaction and added to 160 ul acetonitrile. The supernatant is transferred to 0.25 mm glass fiber filter plates and centrifuged for 5 min at 3000 rpm. Injection volumes of 10 ul are typically added to HPLC columns with formic acid in water or acetonitrile at a flow rate of 0.3 ml/min. Percent loss of parent compound is calculated from the area under each time point to determine the half-life and clearance. Preferred compounds of the invention will have a human liver microsomal stability of <25% QH.

[3] = Aqueous (equilibrium) solubility assay; assay type: physicochemical; settings: aqueous buffer, thermodynamic from solid, 48 hrs equilibrium
Description: The equilibrium solubility of compounds is determined in pH 2, 4.5, 6.8 buffers. Prior to solubility measurement, the crystalline/amorphous characteristics of the sample are determined by observing the powder form under polarized light microscope. Solubility is only measured when compound is crystalline.
Approximately 2 mg of compound are weighed out into a vial and 1-2 ml of buffer are added into the vial (pHs 2 & 4.5, use 1 ml and for pHs 6.8 and 7.4 use 2 ml of buffer). The vial is rotated for 48 hrs protected from light. After 48 hrs, the sample is transferred into an eppendorf tube and centrifuged for 10 minutes at 14,000 RPM, if the supernatant is not clear, it is filtered (PVDF filter). The clear supernatant is diluted if necessary, before analyzing via HPLC. The final pH of the supernatant or the filtrate is measured and reported. The external calibration curve is used to determine the solubility value. The percentage of extraneous peaks relative to the parent peak is monitored in the standard solution as well as the solubility sample. Preferred compounds of the invention will have a solubility of >100 μg/ml.

human CB1R = biological target: T2, human CB1R (Homo sapiens, UniProt P21554); assay: CB1R mediated modulation of cAMP synthesis; assay type: cell-based; settings: CHO cells expressing human CB1R, forskolin-stimulated cAMP
T2 construct: host or cells: CHO cells
T2 sequence (P21554 whole entry): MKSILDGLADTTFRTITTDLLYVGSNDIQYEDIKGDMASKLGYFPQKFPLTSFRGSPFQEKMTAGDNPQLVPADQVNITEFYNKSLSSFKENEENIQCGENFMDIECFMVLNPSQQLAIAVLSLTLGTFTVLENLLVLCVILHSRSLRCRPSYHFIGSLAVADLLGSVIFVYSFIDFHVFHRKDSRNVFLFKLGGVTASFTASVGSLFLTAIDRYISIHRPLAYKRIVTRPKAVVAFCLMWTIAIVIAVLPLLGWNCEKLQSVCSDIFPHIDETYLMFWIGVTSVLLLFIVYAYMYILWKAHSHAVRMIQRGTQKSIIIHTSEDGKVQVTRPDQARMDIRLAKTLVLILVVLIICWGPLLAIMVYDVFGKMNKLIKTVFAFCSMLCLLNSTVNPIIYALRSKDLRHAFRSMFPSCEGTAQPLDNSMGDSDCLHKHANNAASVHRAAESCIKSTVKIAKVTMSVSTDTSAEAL
Description: Compounds of the invention are evaluated for their CB1 agonist or inverse agonistic activity in accordance with the following experimental method.
as §1, with “CB1R” for “CB2R”

Compound: CC(C)(C)n1nnc(NC(=O)C(C)(C)S(=O)(=O)c2ccc(F)cc2)n1 [Table II compound 6]
- Ames [1]: negative
- pEC50 (human CB2R): 7.66
- HLM clearance (percent hepatic blood flow) [2]: <30 QH %
- solubility at 48 h ([3]; pH 4.5 buffer, read-out: solubility at pH 4.5): 133 µg/mL (≈ 360 µM)
- solubility at 48 h ([3]; pH 6.8 buffer, read-out: solubility at pH 6.8): 122 µg/mL (≈ 330 µM)
- pEC50 (human CB1R; CB1 CAMP EC50, Table XI): 4.40
- pEC50 (human CB1R; CB1 EC50, Table II): 4.40
